Test results reported in patent US10662205B2, “Cyclic boronic acid ester derivatives and therapeutic uses thereof” (priority 2014, dated 2020).
Values belong to the compound of their own block, whether it stands above or below them.

Assays:
PAM1032/KPC-2 [1] = test: Biapenem MIC; type: cell-based; details: Pseudomonas aeruginosa; PAM1032 with KPC-2 plasmid
Description: (§1) Efflux of BLIs from Pseudomonas aeruginosa by the MexAB-OprM efflux pump was also evaluated. The plasmid expressing the gene encoding KPC-2 was introduced into two strains of P. aeruginosa, PAM1032 and PAM1154 that overexpressed or lacked MexAB-OprM, respectively. Due to expression of KPC-2 both strains became resistant to biapenem. […] Potency of BLIs to potentiate biapenem in these strains was determined. […] The ratio of MPC64 values for each BLI in PAM1032/KPC-2 (efflux proficient) and PAM1154/KPC-2 (efflux deficient) was determined to generate the Efflux Index (EI).

PAM1154/KPC-2 [2] = test: Biapenem MIC; type: cell-based; details: Pseudomonas aeruginosa; PAM1154 with KPC-2 plasmid
Description: as §1

KP1004 (KPC-2) [3] = test: Biapenem MIC of test strain; details: read-out: Biapenem MIC
KP1086 (OXA-48) [4] = test: Biapenem MIC of test strain; details: read-out: Biapenem MIC
EC1010 (CMY-6) [5] = test: Aztreonam MIC of test strain; type: cell-based
ec308 (SHV-5) [6] = test: Aztreonam MIC of test strain; type: cell-based
KP1004 (KPC-2) [7] = test: organism not typed; type: cell-based; details: read-out: Aztreonam MIC
KP1005 (CTX-M-14) [8] = test: organism not typed; type: cell-based; details: read-out: Aztreonam MIC
KP1010 (SHV-12) [9] = test: Aztreonam MIC of test strain; type: cell-based
KP1009 (CTX-M-15) [10] = test: organism not typed; type: cell-based; details: read-out: Aztreonam MIC
ec302 (TEM-10) [11] = test: Aztreonam MIC of test strain; type: cell-based
EC1010 (CMY-6) [12] = test: Aztreonam potentiation (MPC@4); type: cell-based; details: aztreonam 4 μg/mL
ECL1002 [13] = test: Tigemonam potentiation (MPC@4); type: cell-based; details: tigemonam 4 μg/mL
CMY-2 = CMY-2 (Klebsiella pneumoniae, UniProt Q48434); test: Inhibition of nitrocefin cleavage by purified enzyme (Ki); type: biochemical; details: nitrocefin reporter substrate; 10 min preincubation; read-out: Ki CMY-2, NCF
Description: (§2) Ki values of inhibition of purified class A, C and D enzymes were determined spectrophotometrically using nitrocefin as reporter substrate. Purified enzymes were mixed with various concentrations of inhibitors in reaction buffer and incubated for 10 min at room temperature. Nitrocefin was added and substrate cleavage profiles were recorded at 490 nm every 10 sec for 10 min. These experiments confirmed that the described compounds are inhibitors with a broad-spectrum of activity towards various β-lactamases.

OXA-48 = OXA-48 (Klebsiella pneumoniae, UniProt Q6XEC0); test: as above; type: biochemical; details: nitrocefin reporter substrate; 10 min preincubation; read-out: Ki OXA-48, NCF
Description: as §2

KPC-2 = KPC-2 (Klebsiella pneumoniae, UniProt Q9F663); test: as above; type: biochemical; details: nitrocefin reporter substrate; 10 min preincubation; read-out: Ki KPC-2, NCF
Description: as §2

KP1086 (OXA-48) [14] = test: Biapenem potentiation (MPC@1); details: biapenem 1 μg/mL
KP1004 (KPC-2) [15] = test: Aztreonam potentiation (MPC@4); type: cell-based; details: aztreonam 4 μg/mL
Oral pharmacokinetics = type: in vivo; details: rat, plasma; rats, single oral dose 30 mg/kg, n=3; read-out: Range of % Oral Bioavailability
Description: Several compounds were tested for their oral pharmacokinetics. Rats (n=3 per compound) were administered a single oral dose. Oral doses were administered as a bolus. Plasma (˜0.3 mL) samples were collected from each rat at designated time points up to 24 hours. Blood samples were centrifuged within 5 min of collection at 12000 g for 5 min to obtain plasma. The plasma samples were stored at −80° C. until analyzed. Data were analyzed using WinNonlin.

KP1009 (CTX-M-15) [16] = test: Aztreonam potentiation (MPC@4); type: cell-based; details: aztreonam 4 μg/mL
ec308 (SHV-5) [17] = test: Aztreonam potentiation (MPC@4); type: cell-based; details: aztreonam 4 μg/mL
KP1004 (KPC-2) [18] = test: Biapenem potentiation (MPC@1); details: biapenem 1 μg/mL
ec308 (SHV-5) [19] = test: Tigemonam potentiation (MPC@4); type: cell-based; details: tigemonam 4 μg/mL
KP1009 (CTX-M-15) [20] = test: Tigemonam potentiation (MPC@4); type: cell-based
P99 = P99 (Enterobacter cloacae, UniProt P05364); test: biochemical; details: nitrocefin reporter substrate; 10 min preincubation; read-out: Ki P99, NCF
Description: as §2, with “min.” for “min. These experiments confirmed that the described compounds are inhibitors with a broad-spectrum of activity towards various β-lactamases.”

EC1010 (CMY-6) [21] = test: Tigemonam potentiation (MPC@4); type: cell-based; details: tigemonam 4 μg/mL; EC1010, CMY-6
ec302 (TEM-10) [22] = test: Aztreonam potentiation (MPC@4); type: cell-based; details: aztreonam 4 μg/mL
KP1005 (CTX-M-14) [23] = test: Tigemonam potentiation (MPC@4); type: cell-based; details: tigemonam 4 μg/mL
KP1010 (SHV-12) [24] = test: Tigemonam potentiation (MPC@4); type: cell-based
ECL1002 [25] = test: Aztreonam potentiation (MPC@4); type: cell-based; details: aztreonam 4 μg/mL
SHV-12 = SHV-12 (Klebsiella pneumoniae, UniProt P0AD64, E235K/G234S/L31Q); test: Inhibition of nitrocefin cleavage by purified enzyme (Ki); type: biochemical
Description: as §2, with “min.” for “min. These experiments confirmed that the described compounds are inhibitors with a broad-spectrum of activity towards various β-lactamases.”

CTX-M-14 = CTX-M-14 (Escherichia coli, UniProt Q9L5C7); test: as above; type: biochemical; details: nitrocefin reporter substrate; 10 min preincubation; read-out: Ki CTX-M-14, NCF
Description: as §2, with “min.” for “min. These experiments confirmed that the described compounds are inhibitors with a broad-spectrum of activity towards various β-lactamases.”

PAM1154/KPC-2 [26] = test: Biapenem potentiation MPC64, efflux deficient strain; type: cell-based, Pseudomonas aeruginosa; parameters: unit not given here; details: efflux deficient (lacks MexAB-OprM); decrease biapenem MIC 64-fold, 32 to 0.5 μg/ml
Description: as §1

KP1005 (CTX-M-14) [27] = test: Aztreonam potentiation (MPC@4); type: cell-based; details: aztreonam 4 μg/mL
KP1010 (SHV-12) [28] = test: Aztreonam potentiation (MPC@4); type: cell-based; details: aztreonam 4 μg/mL
PAM1032/KPC-2 [29] = test: Biapenem potentiation MPC64, efflux proficient strain; type: cell-based, Pseudomonas aeruginosa; parameters: unit not given here; details: efflux proficient (MexAB-OprM overexpressed); decrease biapenem MIC 64-fold, 32 to 0.5 μg/ml
Description: as §1

ec302 (TEM-10) [30] = test: Tigemonam potentiation (MPC@4); type: cell-based; details: tigemonam 4 μg/mL
ECL1002 [31] = test: Tigemonam MIC of test strain
ec308 (SHV-5) [32] = test: Tigemonam MIC of test strain
EC1010 (CMY-6) [33] = test: Tigemonam MIC of test strain
ec302 (TEM-10) [34] = test: Tigemonam MIC of test strain
KP1009 (CTX-M-15) [35] = test: Tigemonam MIC of test strain
KP1005 (CTX-M-14) [36] = test: Tigemonam MIC of test strain
KP1010 (SHV-12) [37] = test: Tigemonam MIC of test strain

CTX-M-14, sequence (Q9L5C7 29-291): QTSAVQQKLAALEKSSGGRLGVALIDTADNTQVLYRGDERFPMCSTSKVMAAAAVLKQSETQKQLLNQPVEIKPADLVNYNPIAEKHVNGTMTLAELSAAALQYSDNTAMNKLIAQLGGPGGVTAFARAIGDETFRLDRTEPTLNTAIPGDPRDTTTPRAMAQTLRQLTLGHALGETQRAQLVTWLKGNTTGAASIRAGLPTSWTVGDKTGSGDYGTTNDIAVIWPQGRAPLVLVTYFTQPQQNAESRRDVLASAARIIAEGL
SHV-12, sequence (P0AD64 22-286 L31Q/G234S/E235K): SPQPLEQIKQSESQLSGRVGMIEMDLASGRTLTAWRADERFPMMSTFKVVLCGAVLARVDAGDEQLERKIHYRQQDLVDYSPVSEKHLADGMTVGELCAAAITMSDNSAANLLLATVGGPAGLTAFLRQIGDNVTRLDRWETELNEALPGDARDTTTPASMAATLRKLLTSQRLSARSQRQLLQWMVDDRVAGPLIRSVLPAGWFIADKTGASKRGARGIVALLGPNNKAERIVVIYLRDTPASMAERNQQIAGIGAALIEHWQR
CMY-2, sequence (Q48434 21-381, species assumed): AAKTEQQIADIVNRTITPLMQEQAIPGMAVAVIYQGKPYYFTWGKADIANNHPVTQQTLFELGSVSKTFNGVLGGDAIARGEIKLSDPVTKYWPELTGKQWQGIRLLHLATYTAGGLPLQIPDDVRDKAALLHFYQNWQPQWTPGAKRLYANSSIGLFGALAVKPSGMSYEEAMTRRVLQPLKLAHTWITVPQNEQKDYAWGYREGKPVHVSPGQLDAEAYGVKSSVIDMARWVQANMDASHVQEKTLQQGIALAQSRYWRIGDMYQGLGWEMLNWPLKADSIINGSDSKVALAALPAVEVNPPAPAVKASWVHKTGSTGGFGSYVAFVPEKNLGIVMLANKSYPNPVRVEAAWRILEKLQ
P99, sequence (P05364 21-381): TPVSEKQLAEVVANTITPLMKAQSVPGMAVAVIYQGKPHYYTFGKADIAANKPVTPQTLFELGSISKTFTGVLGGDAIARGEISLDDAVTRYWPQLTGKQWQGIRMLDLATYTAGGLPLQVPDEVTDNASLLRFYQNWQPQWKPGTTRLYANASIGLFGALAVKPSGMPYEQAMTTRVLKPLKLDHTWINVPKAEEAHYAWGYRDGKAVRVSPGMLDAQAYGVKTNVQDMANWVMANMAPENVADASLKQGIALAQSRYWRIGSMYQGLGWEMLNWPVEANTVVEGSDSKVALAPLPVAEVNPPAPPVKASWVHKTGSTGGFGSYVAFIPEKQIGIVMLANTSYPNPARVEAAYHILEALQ
KPC-2, sequence (Q9F663 25-293, looked up, species assumed): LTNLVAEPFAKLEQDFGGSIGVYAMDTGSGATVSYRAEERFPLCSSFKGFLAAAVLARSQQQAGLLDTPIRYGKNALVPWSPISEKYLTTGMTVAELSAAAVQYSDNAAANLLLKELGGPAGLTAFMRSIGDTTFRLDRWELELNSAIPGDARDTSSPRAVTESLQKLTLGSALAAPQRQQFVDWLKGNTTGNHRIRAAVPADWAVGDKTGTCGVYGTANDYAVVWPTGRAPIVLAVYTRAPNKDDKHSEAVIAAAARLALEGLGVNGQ
OXA-48, sequence (Q6XEC0 23-265, looked up, species assumed): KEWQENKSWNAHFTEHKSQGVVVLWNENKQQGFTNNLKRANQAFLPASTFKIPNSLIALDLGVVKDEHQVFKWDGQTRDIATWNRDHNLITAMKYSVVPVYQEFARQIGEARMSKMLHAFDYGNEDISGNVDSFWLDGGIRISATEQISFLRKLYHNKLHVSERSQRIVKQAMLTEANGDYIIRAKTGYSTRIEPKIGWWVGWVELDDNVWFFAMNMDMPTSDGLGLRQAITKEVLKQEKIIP

Structure (SMILES): C[C@@H](O)[C@H]1C(=O)N2C(C(=O)[O-])=C(SC3Cn4cnc[n+]4C3)[C@H](C)[C@H]12 (some centres unmarked) [Biapenem]
- MIC (PAM1032/KPC-2 [1]): 32 µg/mL
- MIC (PAM1154/KPC-2 [2]): 32 µg/mL
- MIC (KP1004 (KPC-2) [3]): 32 µg/mL
- MIC (KP1086 (OXA-48) [4]): 16 µg/mL

Structure (SMILES): C[C@H]1[C@H](NC(=O)/C(=N\OC(C)(C)C(=O)O)c2csc(N)n2)C(=O)N1S(=O)(=O)O [Aztreonam]
- MIC (EC1010 (CMY-6) [5]): > 128 µg/mL
- MIC (ec308 (SHV-5) [6]): > 128 µg/mL
- MIC (KP1004 (KPC-2) [7]): > 128 µg/mL
- MIC (KP1005 (CTX-M-14) [8]): > 128 µg/mL
- MIC (KP1010 (SHV-12) [9]): 64 µg/mL
- MIC (KP1009 (CTX-M-15) [10]): > 128 µg/mL
- MIC (ec302 (TEM-10) [11]): 128 µg/mL

Structure (SMILES): Nc1nnc(SCC(=O)N[C@H]2CC=C[C@@H]3CC(=O)OB2O3)s1 [Compound 6, 2-(5-AMINO-1,3,4-THIADIAZOL-2-YLTHIO)-N-((2R,6S)-8-OXO-9,10-DIOXA-1-BORABICYCLO[4.3.1]DEC-4-EN-2-YL)ACETAMIDE]
- MPC@4 aztreonam potentiation (EC1010 (CMY-6) [12]): X (X = MPC@4 ≤ 5 μg/mL)
- MPC@4 tigemonam potentiation (ECL1002 [13]): X (X = MPC@4 ≤ 5 μg/mL)
- Ki (CMY-2): < 100 nM
- Ki (OXA-48): 100 to 1000 nM
- Ki (KPC-2): 100 to 1000 nM
- MPC@1 biapenem potentiation (KP1086 (OXA-48) [14]): Z (Z = MPC@1 > 20 μg/mL)
- MPC@4 aztreonam potentiation (KP1004 (KPC-2) [15]): X (X = MPC@4 ≤ 5 μg/mL)
- bioavailability (Oral pharmacokinetics): 2 to 4%
- MPC@4 aztreonam potentiation (KP1009 (CTX-M-15) [16]): X (X = MPC@4 ≤ 5 μg/mL)
- MPC@4 aztreonam potentiation (ec308 (SHV-5) [17]): X (X = MPC@4 ≤ 5 μg/mL)
- MPC@1 biapenem potentiation (KP1004 (KPC-2) [18]): X (X = MPC@1 ≤ 5 μg/mL)
- MPC@4 tigemonam potentiation (ec308 (SHV-5) [19]): X (X = MPC@4 ≤ 5 μg/mL)
- MPC@4 tigemonam potentiation (KP1009 (CTX-M-15) [20]): X (key: X = MPC@4 ≤ 5 μg/mL; Y = 5 μg/mL < MPC@4 ≤ 20 μg/mL; Z = MPC@4 > 20 μg/mL)
- Ki (P99): < 100 nM
- MPC@4 tigemonam potentiation (EC1010 (CMY-6) [21]): X (X = MPC@4 ≤ 5 μg/mL)
- MPC@4 aztreonam potentiation (ec302 (TEM-10) [22]): X (X = MPC@4 ≤ 5 μg/mL)
- MPC@4 tigemonam potentiation (KP1005 (CTX-M-14) [23]): X (X = MPC@4 ≤ 5 μg/mL)
- MPC@4 tigemonam potentiation (KP1010 (SHV-12) [24]): X (key: X = MPC@4 ≤ 5 μg/mL; Y = 5 μg/mL < MPC@4 ≤ 20 μg/mL; Z = MPC@4 > 20 μg/mL)
- MPC@4 aztreonam potentiation (ECL1002 [25]): X (X = MPC@4 ≤ 5 μg/mL)
- Ki (SHV-12): < 100 nM
- Ki (CTX-M-14): < 100 nM
- PAM1154/KPC-2 Biapenem MPC64 (PAM1154/KPC-2 [26]): 5
- MPC@4 aztreonam potentiation (KP1005 (CTX-M-14) [27]): X (X = MPC@4 ≤ 5 μg/mL)
- MPC@4 aztreonam potentiation (KP1010 (SHV-12) [28]): X (X = MPC@4 ≤ 5 μg/mL)
- PAM1032/KPC-2 Biapenem MPC64 (PAM1032/KPC-2 [29]): 40
- MPC@4 tigemonam potentiation (ec302 (TEM-10) [30]): Y (Y = 5 μg/mL < MPC@4 ≤ 20 μg/mL)

- Tigemonam MIC (ECL1002 [31]): 32 µg/mL
- Tigemonam MIC (ec308 (SHV-5) [32]): >64 µg/mL
- Tigemonam MIC (EC1010 (CMY-6) [33]): 16 µg/mL
- Tigemonam MIC (ec302 (TEM-10) [34]): >64 µg/mL
- Tigemonam MIC (KP1009 (CTX-M-15) [35]): >64 µg/mL
- Tigemonam MIC (KP1005 (CTX-M-14) [36]): >64 µg/mL
- Tigemonam MIC (KP1010 (SHV-12) [37]): >64 µg/mL
Structure (SMILES): CC1(C)[C@H](NC(=O)/C(=N\OCC(=O)O)c2csc(N)n2)C(=O)N1OS(=O)(=O)O [Tigemonam]
